# Measurements as given in patent US10781224B2, “Bis(oxymethyl)phosphinic acid and biogenic metal salts thereof as regulators of plant growth and development” (priority 2016, dated 2020).
# Tests used:
# [1] = system: winter wheat (Vershin variety); test: Winter wheat seed treatment with BHMPA salts: germination energy and germination rate; type: in vivo
# In short: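 Corn, winter wheat and rice seeds (50 per dish, on filter paper) were soaked for 1 h in BHMPA or its metal salts at 1·10^−6-1·10^−12%, with water as control. Germination energy was read on day 4 and germination rate on day 8 for wheat and day 7 for rice and corn, following GOST 12038-84, as the mean of four replicates.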
# [2] = system: rice (Diamant variety); test: Rice seed treatment with BHMPA salts: germinating power; type: in vivo
# In short: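 Seeds (50 per Petri dish on two layers of filter paper) soaked 1 h in BHMPA or its Ca, Mg, Na, Co, Mn, Cu or Zn salts at 1·10^−6-1·10^−12%, with water controls. Germination energy read on day 4, germination on day 8 (wheat) or day 7 (rice, corn), as % means of four replicates. Germinating power taken as root and sprout length plus wet and dry mass per 100 seedlings.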
# [3] = winter wheat Vershin, 1·10^−6% solution
# [4] = winter wheat Vershin, 1·10^−7% solution
# [5] = winter wheat Vershin, 1·10^−8% solution
# [6] = winter wheat Vershin, 1·10^−9% solution
# [7] = winter wheat Vershin, 1·10^−10% solution
# [8] = winter wheat Vershin, 1·10^−11% solution
# [9] = winter wheat Vershin, 1·10^−12% solution
# [10] = winter wheat, comparative study vs Melaphen, 1·10^−9% solution
# [11] = rice seed treatment, comparison with Melaphen (Table XXXIII), solution 1 · 10^−9%
# [12] = rice seeds, solution concentration 1 · 10^−6%
# [13] = rice seeds, solution concentration 1 · 10^−7%
# [14] = rice seeds, solution concentration 1 · 10^−8%
# [15] = rice seeds, solution concentration 1 · 10^−9%
# [16] = rice seeds, solution concentration 1 · 10^−10%
# [17] = rice seeds, solution concentration 1 · 10^−11%
# [18] = rice seeds, solution concentration 1 · 10^−12%
# [19] = rice, vs control, 1·10^−9% solution
compound,measurement,setting,value
"O.O.O=P([O-])(CO)CO.O=P([O-])(CO)CO.[Mn+2] [Mn-salt, Manganese BHMPA Salt]",Germination energy,[1]; [3],72.0%
same,Germination rate,[1]; [3],69.3%
same,Germination energy,[1]; [4],73.6%
same,Germination rate,[1]; [4],76.0%
same,Germination energy,[1]; [5],77.9%
same,Germination rate,[1]; [5],82.7%
same,Germination energy,[1]; [6],85.5%
same,Germination rate,[1]; [6],88.7%
same,Germination energy,[1]; [7],83.0%
same,Germination rate,[1]; [7],85.3%
same,Germination energy,[1]; [8],76.1%
same,Germination rate,[1]; [8],78.8%
same,Germination energy,[1]; [9],71.6%
same,Germination rate,[1]; [9],74.0%
same,Germination energy,[1]; [10],88.0%
same,Germination rate,[1]; [10],93.7%
same,optimum concentration for treating rice seeds before sowing,[2]; rice,1·10^−9%
same,"Length, root",[2]; [11],6.8 cm
same,"Length, root, + % to control",[2]; [11],42%
same,"Length, sprout",[2]; [11],4.2 cm
same,"Length, sprout, + % to control",[2]; [11],35%
same,"Mass, dry, root",[2]; [11],0.24 g/100 plantlings
same,"Mass, dry, root, + % to control",[2]; [11],14%
same,"Mass, dry, sprout",[2]; [11],0.28 g/100 plantlings
same,"Mass, dry, sprout, + % to control",[2]; [11],12%
same,"Mass, wet, root",[2]; [11],1.34 g/100 plantlings
same,"Mass, wet, root, + % to control",[2]; [11],37%
same,"Mass, wet, sprout",[2]; [11],2.34 g/100 plantlings
same,"Mass, wet, sprout, + % to control",[2]; [11],55%
same,"Length, root",[2]; [12],6.2 cm
same,"Length, root, + % to control",[2]; [12],3%
same,"Length, sprout",[2]; [12],2.7 cm
same,"Length, sprout, + % to control",[2]; [12],8%
same,"Mass, dry, root",[2]; [12],0.22 g/100 plantlings
same,"Mass, dry, root, + % to control",[2]; [12],10%
same,"Mass, dry, sprout",[2]; [12],0.29 g/100 plantlings
same,"Mass, dry, sprout, + % to control",[2]; [12],11.5%
same,"Mass, wet, root",[2]; [12],1.13 g/100 plantlings
same,"Mass, wet, root, + % to control",[2]; [12],15%
same,"Mass, wet, sprout",[2]; [12],1.80 g/100 plantlings
same,"Mass, wet, sprout, + % to control",[2]; [12],5%
same,"Length, root",[2]; [13],6.4 cm
same,"Length, root, + % to control",[2]; [13],7%
same,"Length, sprout",[2]; [13],2.9 cm
same,"Length, sprout, + % to control",[2]; [13],16%
same,"Mass, dry, root",[2]; [13],0.25 g/100 plantlings
same,"Mass, dry, root, + % to control",[2]; [13],25%
same,"Mass, dry, sprout",[2]; [13],0.36 g/100 plantlings
same,"Mass, dry, sprout, + % to control",[2]; [13],38%
same,"Mass, wet, root",[2]; [13],1.21 g/100 plantlings
same,"Mass, wet, root, + % to control",[2]; [13],23%
same,"Mass, wet, sprout",[2]; [13],2.12 g/100 plantlings
same,"Mass, wet, sprout, + % to control",[2]; [13],23%
same,"Length, root",[2]; [14],6.5 cm
same,"Length, root, + % to control",[2]; [14],8%
same,"Length, sprout",[2]; [14],3.1 cm
same,"Length, sprout, + % to control",[2]; [14],24%
same,"Mass, dry, root",[2]; [14],0.28 g/100 plantlings
same,"Mass, dry, root, + % to control",[2]; [14],40%
same,"Mass, dry, sprout",[2]; [14],0.41 g/100 plantlings
same,"Mass, dry, sprout, + % to control",[2]; [14],58%
same,"Mass, wet, root",[2]; [14],1.30 g/100 plantlings
same,"Mass, wet, root, + % to control",[2]; [14],33%
same,"Mass, wet, sprout",[2]; [14],2.26 g/100 plantlings
same,"Mass, wet, sprout, + % to control",[2]; [14],31%
same,"Length, root",[2]; [15],6.8 cm
same,"Length, root, + % to control",[2]; [15],13%
same,"Length, sprout",[2]; [15],3.3 cm
same,"Length, sprout, + % to control",[2]; [15],32%
same,"Mass, dry, root",[2]; [15],0.32 g/100 plantlings
same,"Mass, dry, root, + % to control",[2]; [15],60%
same,"Mass, dry, sprout",[2]; [15],0.44 g/100 plantlings
same,"Mass, dry, sprout, + % to control",[2]; [15],69%
same,"Mass, wet, root",[2]; [15],1.44 g/100 plantlings
same,"Mass, wet, root, + % to control",[2]; [15],47%
same,"Mass, wet, sprout",[2]; [15],2.41 g/100 plantlings
same,"Mass, wet, sprout, + % to control",[2]; [15],40%
same,"Length, root",[2]; [16],6.7 cm
same,"Length, root, + % to control",[2]; [16],12%
same,"Length, sprout",[2]; [16],3.0 cm
same,"Length, sprout, + % to control",[2]; [16],12%
same,"Mass, dry, root",[2]; [16],0.26 g/100 plantlings
same,"Mass, dry, root, + % to control",[2]; [16],30%
same,"Mass, dry, sprout",[2]; [16],0.39 g/100 plantlings
same,"Mass, dry, sprout, + % to control",[2]; [16],50%
same,"Mass, wet, root",[2]; [16],1.33 g/100 plantlings
same,"Mass, wet, root, + % to control",[2]; [16],36%
same,"Mass, wet, sprout",[2]; [16],2.30 g/100 plantlings
same,"Mass, wet, sprout, + % to control",[2]; [16],34%
same,"Length, root",[2]; [17],6.5 cm
same,"Length, root, + % to control",[2]; [17],8%
same,"Length, sprout",[2]; [17],2.9 cm
same,"Length, sprout, + % to control",[2]; [17],16%
same,"Mass, dry, root",[2]; [17],0.23 g/100 plantlings
same,"Mass, dry, root, + % to control",[2]; [17],15%
same,"Mass, dry, sprout",[2]; [17],0.36 g/100 plantlings
same,"Mass, dry, sprout, + % to control",[2]; [17],38%
same,"Mass, wet, root",[2]; [17],1.29 g/100 plantlings
same,"Mass, wet, root, + % to control",[2]; [17],31%
same,"Mass, wet, sprout",[2]; [17],2.21 g/100 plantlings
same,"Mass, wet, sprout, + % to control",[2]; [17],28%
same,"Length, root",[2]; [18],6.3 cm
same,"Length, root, + % to control",[2]; [18],5%
same,"Length, sprout",[2]; [18],2.7 cm
same,"Length, sprout, + % to control",[2]; [18],8%
same,"Mass, dry, root",[2]; [18],0.20 g/100 plantlings
same,"Mass, dry, root, + % to control",[2]; [18],0%
same,"Mass, dry, sprout",[2]; [18],0.32 g/100 plantlings
same,"Mass, dry, sprout, + % to control",[2]; [18],23%
same,"Mass, wet, root",[2]; [18],1.27 g/100 plantlings
same,"Mass, wet, root, + % to control",[2]; [18],29%
same,"Mass, wet, sprout",[2]; [18],2.14 g/100 plantlings
same,"Mass, wet, sprout, + % to control",[2]; [18],24%
same,dry mass of the roots increased by,[2]; [19],60%
same,dry mass of the sprouts increased by,[2]; [19],69%
same,length of the root increased by,[2]; [19],13%
same,length of the sprout increased by,[2]; [19],32%
same,wet mass of the roots increased by,[2]; [19],47%
same,wet mass of the sprouts increased by,[2]; [19],40%
